Results: paper PMC10489980, “Design of Potent and Salt-Insensitive Antimicrobial Branched Peptides” (Polymers, 2023)
Read-outs that look alike come from different tables or passages of the source. Residues, ends and D or L forms follow the SMILES beside them.

Key:
Type in all cases: cell-based
[1] = test system: Candida kefyr ATCC 37095
Description: (§1) Ten organisms obtained from the American Type Culture Collection (ATCC; Rockville, MD) were used for antimicrobial assays. Four Gram-negative bacteria included Escherichia coli ATCC 25922, Pseudomonas aeruginosa ATCC 27853, Klebsiella oxytoca ATCC 49131, and Proteus vulgaris ATCC 49132. The three Gram-positive bacteria were Staphylococcus aureus 29213, Micrococcus luteus ATCC 49,732, and Enterococcus faecalis ATCC 29212. The three fungi were Candida albicans ATCC 37092, Candida kefyr ATCC 37095, and Candida tropicalis ATCC 37097. The clinical isolates were obtained from Singapore General Hospital (SGH). They are Enterococcus faecium, Staphylococcus aureus, Klebsiella pneumoniae, Acinetobacter baumannii, Pseudomonas aeruginosa, and Enterobacter species. The strains were incubated in trypticase soy broth (TSB), which was prepared in double distilled water and autoclaved for sterilization. TSB was purchased from Becton-Dickinson (Cockeysville, MD, USA).
(§2) Antimicrobial Assays. A sensitive and reproducible two-stage radial diffusion antimicrobial assay of Lehrer et al. was employed. A 1–4 × 10^6 colony-forming unit/mL of the test organism was mixed with 10 mL of molten underlay gel solution and poured into Petri dishes to form a uniform layer. The gel solution consisted of 10 mM sodium phosphate buffer, 0.03% TSB, and 0.02% Tween-20, with the addition of 100 mM NaCl in the case of high-salt conditions. Upon gel solidification, gel wells were made by a 3-mm diameter template in an evenly spaced array. A 5 µL aliquot of a serial half-log dilution of test peptides at seven concentrations was added to each well after removal of gel plugs. The dishes were incubated at 37 °C for 3 h to allow peptide diffusion into the underlay gels. Gels were overlaid with 10 mL of 1% agarose in 6% TSB (wt/vol). After additional incubation at 37 °C for 16–24 h, the diameter of the clear zone surrounding the wells (colony-free) was measured under a microscope. Antimicrobial activities were expressed in units (0.1 mm = 1 unit), and the MICs (in µM) were determined from the x-intercepts of the dose-response curves. Experiments were performed in triplicates.

[2] = test system: Klebsiella oxytoca ATCC 49131
Description: as §1, §2

[3] = test system: Candida tropicalis ATCC 37097
Description: as §1, §2

[4] = test system: Micrococcus luteus ATCC 49,732
Description: as §1, §2

[5] = test system: Staphylococcus aureus 29213
Description: as §1, §2

[6] = test system: Enterococcus faecalis ATCC 29212
Description: as §1, §2

[7] = test system: Candida albicans ATCC 37092
Description: as §1, §2

[8] = test system: Pseudomonas aeruginosa ATCC 27853
Description: as §1, §2

[9] = test system: Escherichia coli ATCC 25922
Description: as §1, §2

[10] = test system: Proteus vulgaris ATCC 49132
Description: as §1, §2

[11] = ATCC 37095, radial diffusion assay, high-salt (100 mM NaCl), triplicates
[12] = ATCC 37095, radial diffusion assay, low-salt (without NaCl), triplicates
[13] = ATCC 49131, radial diffusion assay, high-salt (100 mM NaCl), triplicates
[14] = ATCC 49131, radial diffusion assay, low-salt (without NaCl), triplicates
[15] = ATCC 37097, radial diffusion assay, high-salt (100 mM NaCl), triplicates
[16] = ATCC 37097, radial diffusion assay, low-salt (without NaCl), triplicates
[17] = ATCC 49,732, radial diffusion assay, high-salt (100 mM NaCl), triplicates
[18] = ATCC 49,732, radial diffusion assay, low-salt (without NaCl), triplicates
[19] = strain 29213, radial diffusion assay, high-salt (100 mM NaCl), triplicates
[20] = strain 29213, radial diffusion assay, low-salt (without NaCl), triplicates
[21] = ATCC 29212, radial diffusion assay, high-salt (100 mM NaCl), triplicates
[22] = ATCC 29212, radial diffusion assay, low-salt (without NaCl), triplicates
[23] = ATCC 37092, radial diffusion assay, high-salt (100 mM NaCl), triplicates
[24] = ATCC 37092, radial diffusion assay, low-salt (without NaCl), triplicates
[25] = ATCC 27853, radial diffusion assay, high-salt (100 mM NaCl), triplicates
[26] = ATCC 27853, radial diffusion assay, low-salt (without NaCl), triplicates
[27] = ATCC 25922, two-stage radial diffusion assay, high-salt (underlay gel 10 mM sodium phosphate, 0.03% TSB, 0.02% Tween-20, with 100 mM NaCl), 37 °C, x-intercept of dose-response curve, triplicates
[28] = ATCC 25922, two-stage radial diffusion assay, low-salt (underlay gel 10 mM sodium phosphate, 0.03% TSB, 0.02% Tween-20, without NaCl), 37 °C, x-intercept of dose-response curve, triplicates
[29] = ATCC 49132, radial diffusion assay, high-salt (100 mM NaCl), triplicates
[30] = ATCC 49132, radial diffusion assay, low-salt (without NaCl), triplicates

Structure (SMILES)	MIC, C. kefyr, H-Salt [1, 11] [µM]	MIC, C. kefyr, L-Salt [1, 12] [µM]	MIC, K. oxytoca, H-Salt [2, 13] [µM]	MIC, K. oxytoca, L-Salt [2, 14] [µM]	MIC, C. tropicalis, H-Salt [3, 15] [µM]	MIC, C. tropicalis, L-Salt [3, 16] [µM]	MIC, M. luteus, H-Salt [4, 17] [µM]	MIC, M. luteus, L-Salt [4, 18] [µM]	MIC, S. aureus, H-Salt [5, 19] [µM]	MIC, S. aureus, L-Salt [5, 20] [µM]	MIC, E. faecalis, H-Salt [6, 21] [µM]	MIC, E. faecalis, L-Salt [6, 22] [µM]	MIC, C. albicans, H-Salt [7, 23] [µM]	MIC, C. albicans, L-Salt [7, 24] [µM]	MIC, P. aeruginosa, H-Salt [8, 25] [µM]	MIC, P. aeruginosa, L-Salt [8, 26] [µM]	MIC, E. coli, H-Salt [9, 27] [µM]	MIC, E. coli, L-Salt [9, 28] [µM]	MIC, P. vulgaris, H-Salt [10, 29] [µM]	MIC, P. vulgaris, L-Salt [10, 30] [µM]	further results
CC(=O)N[C@@H](CCCNC(=O)[C@H](CCCNC(=N)N)NC(=O)[C@H](Cc1ccc(O)cc1)NC(=O)[C@H](CC(C)C)NC(=O)[C@@H](N)CCCNC(=N)N)C(=O)N[C@@H](CCCNC(=O)[C@H](CCCNC(=N)N)NC(=O)[C@H](Cc1ccc(O)cc1)NC(=O)[C@H](CC(C)C)NC(=O)[C@@H](N)CCCNC(=N)N)C(=O)N[C@@H](CCCNC(=O)[C@H](CCCNC(=N)N)NC(=O)[C@H](Cc1ccc(O)cc1)NC(=O)[C@H](CC(C)C)NC(=O)[C@@H](N)CCCNC(=N)N)C(=O)N[C@@H](CCCNC(=O)[C@H](CCCNC(=N)N)NC(=O)[C@H](Cc1ccc(O)cc1)NC(=O)[C@H](CC(C)C)NC(=O)[C@@H](N)CCCNC(=N)N)C(N)=O [O4R]	0.8	0.7	2.4	1.8	1.5	1.4	6.9	1.8	2.0	7.3	> 500	6.6	1.6	1.4	4.8	2.1	4.1	0.7	2.2	5.6	–
CC(C)C[C@H](NC(=O)[C@@H](N)CCCNC(=N)N)C(=O)N[C@@H](Cc1ccc(O)cc1)C(=O)N[C@@H](CCCNC(=N)N)C(=O)NCCCC[C@H](NC(=O)[C@H](CCCCNC(=O)[C@H](CCCNC(=N)N)NC(=O)[C@H](Cc1ccc(O)cc1)NC(=O)[C@H](CC(C)C)NC(=O)[C@@H](N)CCCNC(=N)N)NC(=O)[C@H](CCCCNC(=O)[C@H](CCCNC(=N)N)NC(=O)[C@H](Cc1ccc(O)cc1)NC(=O)[C@H](CC(C)C)NC(=O)[C@@H](N)CCCNC(=N)N)NC(=O)[C@H](CCCCNC(=O)[C@H](CCCNC(=N)N)NC(=O)[C@H](Cc1ccc(O)cc1)NC(=O)[C@H](CC(C)C)NC(=O)[C@@H](N)CCCNC(=N)N)NC(=O)OCC1c2ccccc2-c2ccccc21)C(N)=O [K4R]	0.9	0.9	1.2	1.3	1.2	1.5	1.0	0.6	0.9	0.8	1.5	0.5	0.8	0.7	0.9	0.8	0.7	0.7	1.0	1.1	–
CC(C)C[C@H](NC(=O)[C@@H](N)CCCNC(=N)N)C(=O)N[C@@H](Cc1ccc(O)cc1)C(=O)N[C@@H](CCCNC(=N)N)C(=O)NCCC[C@H](NC(=O)[C@H](CCCNC(=N)N)NC(=O)[C@H](Cc1ccc(O)cc1)NC(=O)[C@H](CC(C)C)NC(=O)[C@@H](N)CCCNC(=N)N)C(=O)NCCC[C@H](NC(=O)[C@H](CCCNC(=N)N)NC(=O)[C@H](Cc1ccc(O)cc1)NC(=O)[C@H](CC(C)C)NC(=O)[C@@H](N)CCCNC(=N)N)C(=O)NCCC[C@H](NC(=O)[C@H](CCCNC(=N)N)NC(=O)[C@H](Cc1ccc(O)cc1)NC(=O)[C@H](CC(C)C)NC(=O)[C@@H](N)CCCNC(=N)N)C(=O)NCCC[C@H](NC(=O)[C@H](CCCNC(=N)N)NC(=O)[C@H](Cc1ccc(O)cc1)NC(=O)[C@H](CC(C)C)NC(=O)[C@@H](N)CCCNC(=N)N)C(N)=O [iO5R] (HELM PEPTIDE1{R.L.Y.R.[Orn]}|PEPTIDE2{R.L.Y.R}|PEPTIDE3{R.L.Y.R.[Orn]}|PEPTIDE4{R.L.Y.R.[Orn]}|PEPTIDE5{R.L.Y.R.[Orn].[am]}$PEPTIDE1,PEPTIDE2,5:R3-4:R2|PEPTIDE1,PEPTIDE3,5:R2-5:R3|PEPTIDE3,PEPTIDE4,5:R2-5:R3|PEPTIDE4,PEPTIDE5,5:R2-5:R3$$$V2.0; N-terminus assumed)	–	–	–	–	–	–	–	–	–	–	–	–	–	–	–	–	–	–	–	–	MIC, C. kefyr, H-Salt ([1]; ATCC 37095, 3 h): 0.5 µM; MIC, C. kefyr, L-Salt ([1]; ATCC 37095, 3 h): 0.6 µM; MIC, K. oxytoca, H-Salt ([2]; ATCC 49131, 3 h): 6.2 µM; MIC, K. oxytoca, L-Salt ([2]; ATCC 49131, 3 h): 1.2 µM; MIC, C. tropicalis, H-Salt ([3]; ATCC 37097, 3 h): 0.6 µM; MIC, C. tropicalis, L-Salt ([3]; ATCC 37097, 3 h): 0.9 µM; MIC, M. luteus, H-Salt ([4]; ATCC 49, 3 h): 2.0 µM; MIC, M. luteus, L-Salt ([4]; ATCC 49, 3 h): 0.8 µM; MIC, S. aureus, H-Salt ([5]; 29213, 3 h): 6.4 µM; MIC, S. aureus, L-Salt ([5]; 29213, 3 h): 1.9 µM; MIC, E. faecalis, H-Salt ([6]; ATCC 29212, 3 h): > 500 µM; MIC, E. faecalis, L-Salt ([6]; ATCC 29212, 3 h): 2.2 µM; MIC, C. albicans, H-Salt ([7]; ATCC 37092, 3 h): 0.8 µM; MIC, C. albicans, L-Salt ([7]; ATCC 37092, 3 h): 0.6 µM; MIC, P. aeruginosa, H-Salt ([8]; ATCC 27853, 3 h): 3.8 µM; MIC, P. aeruginosa, L-Salt ([8]; ATCC 27853, 3 h): 1.0 µM; MIC, E. coli, H-Salt ([9]; ATCC 25922, 3 h): 9.2 µM; MIC, E. coli, L-Salt ([9]; ATCC 25922, 3 h): 0.7 µM; MIC, P. vulgaris, H-Salt ([10]; ATCC 49132, 3 h): 7.8 µM; MIC, P. vulgaris, L-Salt ([10]; ATCC 49132, 3 h): 8.2 µM
